According to patent publication US9101556B2, “Therapeutic agent and therapeutic device for alleviating ischemia-reperfusion injury” (priority 2010, dated 2015):

System: myocardial ischemia-reperfusion injury
Experiment: Murine myocardial ischemia-reperfusion injury model (60 min LAD ligation, then reperfusion); infarcted area by Evans blue/TTC staining
Assay type: in vivo, C57BL/6J male mice
Details: inhalation from 5 min before until 30 min after start of reperfusion; measured 24 h after reperfusion; vs control (oxygen only); t-test p<0.01
From the text: 10-week old C57BL/6J male mice were used for the experiment. […] However, during this period, the animals were allowed to take ad libitum the antibiotic-containing water. […] After intraperitoneal administration of pentobarbital as an anesthetic and tracheal intubation, each animal was connected to an animal ventilator for respiration care. The left thorax was shaven and disinfected to carry out thoracotomy, and the left anterior descending coronary artery was ligated with a silk thread to maintain a state of ischemia for 60 minutes. The silk thread used for ligation was then released to cause reperfusion. Reperfusion was confirmed by the restart of blood flow. After confirming reperfusion, the thorax was closed, and ventilator care was continued until the animal awakened from anesthesia. After awakening from anesthesia, the tube was removed, and the animal received care in indoor air. […] Based on the image which was obtained, each heart section was measured for the area of the LV (left ventricle), the AAR (area at risk=the ischemic area), and the area of Nec (necrosis; the infarcted area) using ImageJ image processing software to calculate the value of AAR/LV (proportion of the ischemic area in the left ventricle) and that of Nec/AAR (proportion of the infarcted area in the ischemic area). […]

Molecule	Nec/AAR (proportion of the infarcted area in the ischemic area) compared with the control group
[HH] [hydrogen]	decreased
nitrogen monoxide	decreased
